# Patent publication EP2711009A1, “Compounds for use in treating or preventing primary and metastatic breast and prostate cancer” (Institut Univ. de Ciència i Tecnologia, S.A., priority 2012, dated 2014)
# Read-outs that look alike come from different tables or passages of the source.
# Key:
# Type in all cases: cell-based
# [1] = tested on: MDA-MB-231(SA) breast cancer cells; assay: WST-1 tetrazolium dye proliferation assay, MDA-MB-231(SA); settings: for inhibition at 1 µM: Homo sapiens, read-out: proliferation inhibitory effect compared with 0.1% DMSO vehicle control group; for proliferation inhibitory effect compared with Gemcitabine: relative to Gemcitabine (= 0), negative = less inhibition than Gemcitabine
# Procedure: (§1) Determination of the ability of compound of formula (I) and combinations between compound of formula (I) and certain therapeutic compounds described herein to inhibit the proliferation of target cells was assayed in vitro against breast and prostate tumour cells.
# (§2) MCF-7 and LNCaP cells were purchased from ATCC. MDA-MB-231(SA) cells were obtained from Professor Theresa Guise. PNT1A cells were purchased from ECACC. The cells were grown in a subconfluent condition to maintain a logarithmic growth phase. The cells were dislodged for passage using trypsin-EDTA.
# (§3) The proliferation of the cell lines was evaluated by using the commercial WST-1 proliferation measurement reagent. Cells from exponentially growing cultures were plated on the 96 well plates at the appropriate seeding density in the optimal medium to give logarithmic growth over the course of the assay. The plates with MCF-7, MDA-MB-231(SA), PC3M and PNT1A cells were incubated 24h at 37°C in a humidified CO2 atmosphere to allow for recovery from trypsinization before adding of test and control compounds. 1mM stock solutions were prepared from test compounds in DMSO (dimethylsulfoxide) and stored at -20°C. Control compounds Ara-C and Gemcitabine stock solutions were prepared in sterile water. Each test and control compound was diluted twice the final concentration in appropriate media. Half of the final well volume of each dilution was added in six parallels to plates containing cells. Required volume of DMSO was added into the vehicle and control compound dilutions to achieve the final concentration of 0.1% DMSO in all control and test compound wells. The plates were returned to 37°C in a humified CO2 atmosphere and incubated for 5 days. WST-1 reagent (2-(4-Iodophenyl)-3-(4-nitrophenyl)-5-(2,4-disulfophenyl)-2H-tetrazolium) was added to each well according manufacturer's instructions and the plates were returned to 37°C in a humidified CO2 atmosphere for 2 hours. Following incubation the absorbance at a wavelength of 450nm was measured from each well using a multilabel counter. The absorbance at wavelength 450nm correlates linearly to number of viable cells in the well.
# (§4) The means and standard deviations for parallel samples were calculated and plotted as a graph.
# [2] = tested on: PC3M prostate cancer cells; assay: WST-1 tetrazolium dye proliferation assay, PC3M; settings: for inhibition at 1 µM: Homo sapiens, PC-3M, 120 h, read-out: proliferation inhibitory effect compared with 0.1% DMSO vehicle control group; for proliferation inhibitory effect compared with Gemcitabine: relative to Gemcitabine (= 0)
# Procedure: as §1, §2, §3, §4
# [3] = tested on: PNT1A immortalized normal prostate cells; assay: WST-1 tetrazolium dye proliferation assay, PNT1A normal cells; settings: Homo sapiens, 120 h, read-out: proliferation inhibitory effect compared with 0.1% DMSO vehicle control group
# Procedure: as §1, §2, §3, §4
# pancreatic cancer cells = assay: Effect on pancreatic cancer cells (no method given); settings: other type of cancer cells such as pancreatic cancer cells
# [4] = PNT1A immortalized normal prostate cell line, 5 days incubation, mean±SD, concentration not given (primary screen 1 microM)
compound,measurement,setting,value
Nc1ccn([C@@H]2O[C@H](CO)[C@@H](O)[C@@H]2O)c(=O)n1 [Ara-C],inhibition at 1 µM,"[1]; MDA-MB-231, 120 h",80.4 ± 2.5%
same,inhibition at 1 µM,[2],72.6 ± 3.5%
same,inhibition at 1 µM,[3]; [4],66.5 ± 1.8%
"CCSc1ncnc2c1ncn2[C@@H]1O[C@H](CO)[C@@H](O)[C@H]1O [Compound I, 6-(Ethylthio)inosine]",inhibition at 1 µM,"[1]; MDA-MB-231, 120 h",93.4 ± 1.3%
same,proliferation inhibitory effect compared with Gemcitabine,[1]; MDA-MB-231(SA),11.7±18.0%
same,inhibition at 1 µM,[2],73.6 ± 5.5%
same,proliferation inhibitory effect compared with Gemcitabine,[2]; PC3M,26.6±15.4%
same,inhibition at 1 µM,[3]; PNT1A,26.2 ± 7.7%
same,effect on pancreatic cancer cells,pancreatic cancer cells,no effect was detected
"Nc1ncnc2[nH]ncc12 [Compound A, 4-Aminopyrazolo[3,4-d]pyrimidine]",proliferation inhibitory effect compared with Gemcitabine,[2]; PC3M,70.1±2.7%
O=c1[nH]c(=O)n([C@H]2C[C@H](O)[C@@H](CO)O2)cc1F [Floxuridine],inhibition at 1 µM,"[1]; 120 h, MDA-MB-231(SA), 5 days incubation, mean±SD, concentration not given (primary screen 1 microM)",82.4 ± 2.6%
same,proliferation inhibitory effect compared with Gemcitabine,[1]; MDA-MB-231(SA),-136.4±34.6%
same,inhibition at 1 µM,"[2]; PC3M, 5 days incubation, mean±SD, concentration not given (primary screen 1 microM)",78 ± 3.4%
same,proliferation inhibitory effect compared with Gemcitabine,[2]; PC3M,38.9±9.5%
same,inhibition at 1 µM,[3]; [4],88.3 ± 0.6%
"Nc1ccn([C@@H]2O[C@H](CO)[C@@H](O)C2(F)F)c(=O)n1 [Gemcitabine, 2',2'-difluorodeoxycytidine]",inhibition at 1 µM,"[1]; MDA-MB-231, 120 h",93.3 ± 0.9%
same,proliferation inhibitory effect compared with Gemcitabine,[1]; MDA-MB-231(SA),0%
same,inhibition at 1 µM,[2],67.5 ± 7.2%
same,proliferation inhibitory effect compared with Gemcitabine,[2]; PC3M,0%
same,inhibition at 1 µM,[3]; [4],98.8 ± 0.3%
